In patent publication US20150152395A1, “CHIMERIC LUCIFERASES” (Connecticut College, priority 2012, published 2015):
Blank lines part the entries; values can stand above or below the molecule they belong to.

Experiments:
[1] = system: PpyLit, chimeric luciferase of PpyWT residues 1-439 and LitWT residues 440-550, SEQ ID NO: 8; assay: Relative rate of adenylate formation (L-AMP formation from dehydroluciferin), fluorescence-based; type: biochemical, Photinus pyralis / Luciola italica; conditions: faster than PpyWT, pH 7.4
Protocol: Using an excitation wavelength of 350 nm, the luciferase-catalyzed formation of L-AMP from dehydroluciferin (L), initiated by the addition of Mg-ATP, was assessed by following the decrease in the intensity of the 440 nm fluorescence of the initial enzyme-L complex. The change in fluorescence was used to estimate the rates of L-AMP formation catalyzed by the luciferases. Assays (0.4 mL) in 50 mM Tris buffer, pH 7.4 contained 2.8 μM enzyme and 0.55 μM L. The initial fluorescence at 440 nm was recorded and then the decrease was monitored following the rapid injection of 50 μL solutions of varying concentrations of Mg-ATP in the same buffer. The rates of decrease (slopes) were calculated and used to determine the initial velocities for each Mg-ATP concentration. The data were fitted using a nonlinear least squares method of the Enzyme Kinetics Pro software (SynTex), which fits data from the Michalis-Menten equation to a rectangular hyperbola, and the Vmax values were obtained. The corresponding kcat values were obtained by dividing the Vmax values (μmol/s) by the final amounts (μmol) of each luciferase in the assay mixtures.

[2] = system: PpyLit (chimeric luciferase, SEQ ID NO: 8) variant I232A/I351V/E354K; assay: Steady-state kinetic constants, bioluminescence activity; type: biochemical, Photinus pyralis / Luciola italica; conditions: pH 7.8
Protocol: (§1) Reactions were initiated by injection of solutions of the substrate being maintained at saturating concentration. Kinetic constants were determined using a nonlinear least squares method of the Enzyme Kinetics Pro software (SynTex), which fits data from the Michalis-Menten equation to a rectangular hyperbola. The corresponding kcat values were obtained by dividing the Vmax values by the amount (μmol) of each luciferase in the assay mixtures.

[3] = system: PpyLit (chimeric luciferase, SEQ ID NO: 8) variant F465R; assay: as above; type: biochemical, Photinus pyralis / Luciola italica; conditions: pH 7.8
Protocol: as §1

[4] = system: PpyLit (chimeric luciferase, SEQ ID NO: 8) variant I232A/E354K; assay: as above; type: biochemical, Photinus pyralis / Luciola italica; conditions: pH 7.8
Protocol: as §1

[5] = system: PpyLit (chimeric luciferase, SEQ ID NO: 8) variant S284T/F465R; assay: as above; type: biochemical, Photinus pyralis / Luciola italica; conditions: pH 7.8
Protocol: as §1

[6] = system: PpyLit (chimeric luciferase, SEQ ID NO: 8) variant S284T/I351V/E354K; assay: as above; type: biochemical, Photinus pyralis / Luciola italica; conditions: pH 7.8
Protocol: as §1

[7] = system: Ppy RE-TSLit, chimeric luciferase of Ppy RE-TS N-domain and LitWT C-domain; assay: as above; type: biochemical, Photinus pyralis / Luciola italica; conditions: pH 7.8
Protocol: as §1

[8] = system: Ppy GR-TSLit, chimeric luciferase of Ppy GR-TS N-domain and LitWT C-domain; assay: as above; type: biochemical, Photinus pyralis / Luciola italica; conditions: pH 7.8
Protocol: as §1

[9] = system: PpyLit, chimeric luciferase of PpyWT residues 1-439 and LitWT residues 440-550, SEQ ID NO: 8; assay: as above; type: biochemical, Photinus pyralis / Luciola italica; conditions: pH 7.8
Protocol: as §1

[10] = system: PpyLit (chimeric luciferase, SEQ ID NO: 8) variant S284T; assay: as above; type: biochemical, Photinus pyralis / Luciola italica; conditions: pH 7.8
Protocol: as §1

[11] = system: PpyLit (chimeric luciferase, SEQ ID NO: 8) variant I351V/E354K/F465R; assay: as above; type: biochemical, Photinus pyralis / Luciola italica; conditions: pH 7.8
Protocol: as §1

[12] = system: PpyLit (chimeric luciferase, SEQ ID NO: 8) variant I351V/E354K; assay: as above; type: biochemical, Photinus pyralis / Luciola italica; conditions: pH 7.8
Protocol: as §1

[13] = molecular target: Photinus pyralis luciferase, recombinant wild type (PpyWT), SEQ ID NO: 4, with N-terminal peptide GPLGS (Photinus pyralis, UniProt P08659); assay: as above; type: biochemical; conditions: pH 7.8; Vmax from LH2 Km measurement
Chain of Photinus pyralis luciferase, recombinant wild type (PpyWT), SEQ ID NO: 4, with N-terminal peptide GPLGS (P08659 whole entry, the tested form may be a part): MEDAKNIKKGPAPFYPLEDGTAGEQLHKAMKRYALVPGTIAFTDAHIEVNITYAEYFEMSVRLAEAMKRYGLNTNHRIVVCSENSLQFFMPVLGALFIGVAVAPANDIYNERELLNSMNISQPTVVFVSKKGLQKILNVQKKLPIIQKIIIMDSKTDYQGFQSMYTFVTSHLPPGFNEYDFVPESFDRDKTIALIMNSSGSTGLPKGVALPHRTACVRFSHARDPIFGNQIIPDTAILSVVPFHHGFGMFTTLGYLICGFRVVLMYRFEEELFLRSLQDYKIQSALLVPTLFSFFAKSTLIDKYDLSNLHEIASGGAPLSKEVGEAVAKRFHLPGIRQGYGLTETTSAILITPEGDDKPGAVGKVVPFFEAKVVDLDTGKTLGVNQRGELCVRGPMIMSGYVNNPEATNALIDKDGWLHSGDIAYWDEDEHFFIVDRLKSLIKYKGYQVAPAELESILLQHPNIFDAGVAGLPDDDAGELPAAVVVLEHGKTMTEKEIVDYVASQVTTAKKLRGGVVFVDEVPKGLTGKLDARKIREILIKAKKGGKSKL

[14] = system: LitPpy, chimeric luciferase of LitWT residues 1-439 and PpyWT residues 440-550; assay: as above; type: biochemical, Luciola italica / Photinus pyralis; conditions: pH 7.8
Protocol: as §1

[15] = system: PpyLit, chimeric luciferase of PpyWT residues 1-439 and LitWT residues 440-550, SEQ ID NO: 8; assay: Rate of oxidative half-reaction with synthetic LH2-AMP; type: biochemical, Photinus pyralis / Luciola italica; conditions: faster than PpyWT; LH2-AMP as substrate, pH 7.8
Protocol: The estimated rates of the oxidative half-reactions were based on bioluminescence activity assays using synthetic LH2-AMP as the substrate. Assays (0.510 mL) in 50 mM glycylglycine buffer, pH 7.8, contained 0.1 mL aliquots of LH2-AMP solution (final concentration 1.5-35 μM) in 10 mM sodium acetate, pH 4.5. Immediately, light reactions were initiated by injections of 10 μL of luciferase enzymes (0.4-1 μg in CBA). Kinetic constants were determined using a nonlinear least squares method of the Enzyme Kinetics Pro software (SynTex), which fits data from the Michalis-Menten equation to a rectangular hyperbola. The corresponding kcat values were obtained by dividing the Vmax values by the final amounts (μmol) of each luciferase in the assay mixtures.

[16] = substrate: Nc1ncnc2c1ncn2[C@@H]1O[C@H](COP(=O)(O)OP(=O)(O)OP(=O)(O)O)[C@@H](O)[C@H]1O; assay: purified protein, by the assay type; conditions: other: pH 7.8, LH2 saturating, 37.0 °C
[17] = substrate: O=C(O)[C@H]1CSC(c2nc3ccc(O)cc3s2)=N1; assay: purified protein, by the assay type; conditions: other: pH 7.8, Mg-ATP saturating, 37.0 °C
[18] = read-out: Km LH2, Mg-ATP saturating

rate of adenylate formation half reaction [1]: ~1.35 fold
Molecule: O=C(O)c1csc(-c2nc3ccc(O)cc3s2)n1 [L, dehydroluciferin]

Molecule: O=C(O)[C@H]1CSC(c2nc3ccc(O)cc3s2)=N1 [LH2, D-firefly luciferin]
kcat ([2]; Vmax from LH2 Km measurement): 0.24 ± 0.01 s⁻¹
Km [2, 18]: 51 ± 5 µM
kcat ([3]; Vmax from LH2 Km measurement): 0.34 ± 0.02 s⁻¹
Km [3, 18]: 31 ± 3 µM
kcat ([4]; Vmax from LH2 Km measurement): 0.25 ± 0.01 s⁻¹
Km [4, 18]: 24 ± 3 µM
kcat ([5]; Vmax from LH2 Km measurement): 0.10 ± 0.01 s⁻¹
Km [5, 18]: 22 ± 3 µM
kcat ([6]; Vmax from LH2 Km measurement): 0.13 ± 0.01 s⁻¹
Km [6, 18]: 49 ± 5 µM
kcat ([7]; Vmax from LH2 Km measurement): 0.09 ± 0.003 s⁻¹
Km [7, 18]: 51 ± 3 µM
kcat ([8]; Vmax from LH2 Km measurement): 0.079 ± 0.001 s⁻¹
Km [8, 18]: 123 ± 9 µM
kcat ([9]; Vmax from LH2 Km measurement): 0.32 ± 0.02 s⁻¹
Km [9, 18]: 25 ± 2 µM
kcat ([10]; Vmax from LH2 Km measurement): 0.10 ± 0.01 s⁻¹
Km [10, 18]: 15 ± 2 µM
kcat ([11]; Vmax from LH2 Km measurement): 0.29 ± 0.01 s⁻¹
Km [11, 18]: 83 ± 3 µM
kcat ([12]; Vmax from LH2 Km measurement): 0.30 ± 0.02 s⁻¹
Km [12, 18]: 52 ± 5 µM
kcat [13]: 0.18 ± 0.01 s⁻¹
kcat ([14]; Vmax from LH2 Km measurement): 0.033 ± 0.001 s⁻¹
Km [14, 18]: 54 ± 5 µM

rate of oxidative half reaction [15]: ~1.35 fold
Molecule: Nc1ncnc2c1ncn2[C@@H]1O[C@H](COP(=O)(O)OC(=O)[C@H]2CSC(c3nc4ccc(O)cc4s3)=N2)[C@@H](O)[C@H]1O [LH2-AMP]

B1: LitWT, recombinant Luciola italica luciferase containing Lys547Gly/Met548Gly, SEQ ID NO: 6, with N-terminal peptide GPLGS (Luciola italica; K547G/M548G) (protein)
chain: METEREENVVYGPLPFYPIEEGSAGIQLHKYMQQYAKLGAIAFSNALTGVDISYQQYFDITCRLAEAMKNYGMKPEGHIALCSENCEEFFIPVLAGLYIGVTVAPTNEIYTLRELNHSLGIAQPTIVFSSRKGLPKVLEVQKTVTCIKTIVILDSKVNFGGYDCVETFIKKHVELGFPATSFVPIDVKDRKHHIALLMNSSGSTGLPKGVEITHEGTVTRFSHAKDPIYGNQVSPGTAILTVVPFHHGFGMFTTLGYFACGYRIVMLTKFDEELFLRTLQDYKCTSVILVPTLFAILNRSELLDKFDLSNLTEIASGGAPLAKEIGEAVARRFNLPGVRQGYGLTETTSAFIITPEGDDKPGASGKVVPLFKVKIIDLDTKKTLGVNRRGEICVKGPSLMLGYTNNPEATRETIDEEGWLHTGDIGYYDEDEHFFIVDRLKSLIKYKGYQVPPAELESVLLQHPNIFDAGVAGVPDSEAGELPGAVVVMEKGKTMTEKEIVDYVNSQVVNHKRLRGGVRFVDEVPKGLTGKIDAKVIREILKKPQAGG
Km [16]: 180 ± 14 µM
Km [17]: 90 ± 9 µM
kcat [17]: 0.14 ± 0.01 s⁻¹
